Assay results: patent publication US5258377A, “2-spirocyclopropyl 4-acylcephems” (Taiho Pharmaceutical Co., Ltd., priority 1991, dated 1993)

The compounds below were run against T1, human leukocyte elastase (HLE) (Homo sapiens, UniProt P08246) (assay: in vitro anti-elastase activity against human leukocyte elastase (HLE)).
T1 sequence (P08246 30-247 limits assumed): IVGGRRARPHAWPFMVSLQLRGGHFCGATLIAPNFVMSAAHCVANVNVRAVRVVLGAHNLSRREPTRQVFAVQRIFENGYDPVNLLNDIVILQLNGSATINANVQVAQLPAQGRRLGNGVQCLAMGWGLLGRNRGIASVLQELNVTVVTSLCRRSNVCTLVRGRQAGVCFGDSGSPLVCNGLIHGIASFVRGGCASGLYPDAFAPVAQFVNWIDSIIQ
Format: biochemical

IC50 | SMILES
10.3 nM | CCC(=O)C1=C(C)C2(CC2(c2ccccc2)c2ccccc2)S(=O)(=O)[C@@H]2[C@@H](OC)C(=O)N12 (stereo partly drawn) [Compd 2, 7α-Methoxy-2-spiro (2',2'-diphenyl)cyclopropyl-3-methyl-3-cephem-4-ethylcarbonyl 1,1-dioxide]
7.4 nM | CCCCC(=O)C1=C(C)C2(CC2(c2ccccc2)c2ccccc2)S(=O)(=O)[C@@H]2[C@@H](OC)C(=O)N12 (stereo partly drawn) [Compd 3, 7α-Methoxy-2-spiro(2',2'-diphenyl)cyclopropyl-3-methyl-3-cephem-4-butylcarbonyl 1,1-dioxide]
8.9 nM | CC1=C(C(=O)c2ccccc2)N2C(=O)[C@H](Cl)[C@H]2S(=O)(=O)C12CC2(c1ccccc1)c1ccccc1 (stereo partly drawn) [Compd 4, 7α-chloro-2-spiro (2',2'-diphenyl)cyclopropyl-3-methyl-3-cephem-4-phenylcarbonyl 1,1-dioxide]
6.3 nM | CC1=C(C(=O)C(C)(C)C)N2C(=O)[C@H](Cl)[C@H]2S(=O)(=O)C12CC2(c1ccccc1)c1ccccc1 (stereo partly drawn) [Compd 5, 7α-Chloro-2-spiro(2',2'-diphenyl)cyclopropyl-3-methyl-3-cephem-4-t-butylcarbonyl 1,1-dioxide]
12 nM | CO[C@H]1C(=O)N2C(C(=O)C(C)(C)C)=C(C)C3(CC3(c3ccccc3)c3ccccc3)S(=O)(=O)[C@H]12 (stereo partly drawn) [Compd 6, 7α-Methoxy-2-spiro(2',2'-diphenyl)cyclopropyl-3-methyl-3-cephem-4-t-butylcarbonyl 1,1-dioxide]
